Experimental data: patent US20160168126A1, “CHEMICAL COMPOUNDS” (SYNGENTA LIMITED, priority 2013, published 2016)

Test system: a variety of test species
Assay: Post-emergence herbicidal activity (glasshouse, sprayed 8 days after sowing, evaluated after 13 days)
Format: in vivo
Conditions: scale 0-5
Experimental: Seeds of a variety of test species were sown in standard soil in pots. After 8 days cultivation (post-emergence) under controlled conditions in a glasshouse (at 24/16° C., day/night; 14 hours light; 65% humidity), the plants were sprayed with an aqueous spray solution derived from the formulation of the technical active ingredient in acetone/water (50:50) solution containing 0.5% Tween 20 (polyoxyethelyene sorbitan monolaurate, CAS RN 9005-64-5). The test plants were then grown in a glasshouse under controlled conditions (at 24/16° C., day/night; 14 hours light; 65% humidity) and watered twice daily. After 13 days, the test was evaluated (5=total damage to plant; 0=no damage to plant).

Structure (SMILES) | Post-emergence herbicidal damage score, ABUTH (Abutilon theophrasti) (1000 g/ha) | Post-emergence herbicidal damage score, ALOMY (Alopecurus myosuroides) (1000 g/ha) | Post-emergence herbicidal damage score, AMARE (Amaranthus retroflexus) (1000 g/ha) | Post-emergence herbicidal damage score, ECHCG (Echinochloa crus-galli) (1000 g/ha) | Post-emergence herbicidal damage score, SETFA (Setaria faberi) (1000 g/ha) | Post-emergence herbicidal damage score, ZEAMX (Zea mays) (1000 g/ha) | Post-emergence herbicidal damage score, ABUTH (Abutilon theophrasti) (250 g/ha) | Post-emergence herbicidal damage score, ALOMY (Alopecurus myosuroides) (250 g/ha) | Post-emergence herbicidal damage score, AMARE (Amaranthus retroflexus) (250 g/ha) | Post-emergence herbicidal damage score, ECHCG (Echinochloa crus-galli) (250 g/ha) | Post-emergence herbicidal damage score, SETFA (Setaria faberi) (250 g/ha) | Post-emergence herbicidal damage score, ZEAMX (Zea mays) (250 g/ha)
C=CCC(C)(C)c1cc(N2C(=O)C(C)=C(Cl)C2O)nn1C (stereo not drawn) [Compound B6, 3-chloro-1-[5-(1,1-dimethylbut-3-enyl)-1-methyl-pyrazol-3-yl]-2-hydroxy-4-methyl-2H-pyrrol-5-one] | 5 | 5 | 5 | 5 | 5 | 2 | – | – | – | – | – | –
CC1=C(Cl)C(O)N(c2cc(C(F)(F)C(F)(F)F)[nH]n2)C1=O (stereo not drawn) [Compound A6] | 2 | 1 | 3 | 2 | 2 | 1 | – | – | – | – | – | –
CC1=C(Br)C(O)N(c2cc(C(F)(F)F)n(C)n2)C1=O (stereo not drawn) [Compound H4] | 5 | 5 | 5 | 2 | 1 | 0 | – | – | – | – | – | –
COC1=C(C)C(=O)N(c2cc(C(C)(C)C)[nH]n2)C1O (stereo not drawn) [Compound I1] | – | – | – | – | – | – | 5 | 3 | 5 | 3 | 5 | 1
CC1=C(Cl)C(O)N(c2cc(C(F)(F)F)n(CC(F)(F)F)n2)C1=O (stereo not drawn) [Compound C5] | 2 | 0 | 1 | 0 | 0 | 3 | – | – | – | – | – | –
CCCC1=C(C)C(O)N(c2nn(C)c(C(C)(C)C)c2C#N)C1=O (stereo not drawn) [Compound D4] | 4 | 3 | 2 | 2 | 4 | 0 | – | – | – | – | – | –
COC1=C(C)C(=O)N(c2nn(C)c3c2CCC3(C)C)C1O (stereo not drawn) [Compound I4] | 5 | 5 | 5 | 5 | 5 | 3 | – | – | – | – | – | –
C=C(C)c1cc(N2C(=O)C(C)=C(Cl)C2O)nn1C (stereo not drawn) [Compound B25] | 5 | 4 | 5 | 5 | 5 | 2 | – | – | – | – | – | –
COC1=C(C)C(=O)N(c2cc3n(n2)CCCC3(C)C)C1O (stereo not drawn) [Compound I5] | 5 | 5 | 5 | 5 | 5 | 4 | – | – | – | – | – | –
CC1=C(Cl)C(O)N(c2nn(C)c(C(C)(C)C)c2C#N)C1=O (stereo not drawn) [Compound D1] | 3 | 2 | 4 | 3 | 1 | 0 | – | – | – | – | – | –
CC(C)=C(C)c1cc(N2C(=O)C(C)=C(Cl)C2O)nn1C (stereo not drawn) [Compound B27] | 4 | 1 | 1 | 0 | 3 | 0 | – | – | – | – | – | –
CC1=C(Cl)C(O)N(c2cc(C(F)(F)F)n(C)n2)C1=O (stereo not drawn) [Compound B3] | 5 | 5 | 5 | 5 | 4 | 1 | – | – | – | – | – | –
CC1=C(Cl)C(O)N(c2cc3n(n2)CCC3(C)C)C1=O (stereo not drawn) [Compound G2] | – | – | – | – | – | – | 5 | 5 | 5 | 5 | 5 | 4
CC1=C(Cl)C(O)N(c2cc(C(C)C)[nH]n2)C1=O (stereo not drawn) [Compound A3] | – | – | – | – | – | – | 5 | 5 | 5 | 5 | 4 | 1
CC1=C(Cl)C(O)N(c2cc(C(F)C(C)(C)C)n(C)n2)C1=O (mixture of isomers) [Compound B19] | 4 | 2 | 4 | 3 | 4 | 0 | – | – | – | – | – | –
CC1=C(Cl)C(O)N(c2cc(I)n(C)n2)C1=O (stereo not drawn) [Compound B8, 3-chloro-2-hydroxy-1-(5-iodo-1-methyl-pyrazol-3-yl)-4-methyl-2H-pyrrol-5-one] | 5 | 3 | 5 | 4 | 5 | 1 | – | – | – | – | – | –
CC1=C(Cl)C(O)N(c2cc(C#N)n(CC(F)(F)F)n2)C1=O (stereo not drawn) [Compound C7] | 3 | 0 | 0 | 0 | 1 | 0 | – | – | – | – | – | –
CCn1nc(N2C(=O)C(C)=C(Cl)C2O)cc1C(C)(C)C (stereo not drawn) [Compound C2] | 5 | 3 | 4 | 4 | 4 | 0 | – | – | – | – | – | –
CC1=C(Cl)C(O)N(c2cc(C(C)(C)C)[nH]n2)C1=O (stereo not drawn) [Compound A1] | – | – | – | – | – | – | 5 | 4 | 2 | 5 | 4 | 0
CC1=C(Cl)C(O)N(c2nn(C)c(C(C)(C)C)c2Cl)C1=O (stereo not drawn) [Compound D2] | 3 | 1 | 0 | 2 | 2 | 0 | – | – | – | – | – | –
C/C=C\c1cc(N2C(=O)C(C)=C(Cl)C2O)nn1C (stereo not drawn) [Compound B24] | 5 | 3 | 5 | 4 | 5 | 1 | – | – | – | – | – | –
CC1=C(Cl)C(OC(=O)Oc2ccccc2)N(c2cc(C(C)(C)C)n(C)n2)C1=O (stereo not drawn) [Compound F2] | 5 | 4 | 5 | 5 | 5 | 1 | – | – | – | – | – | –
CC1=C(Cl)C(O)N(c2cc([S+](C)[O-])n(C)n2)C1=O (stereo not drawn) [Compound B26] | 5 | 4 | 5 | 5 | 5 | 4 | – | – | – | – | – | –
